Data published in patent US12696901B2, “Pesticidally active heterocyclic derivatives with sulfur containing substituents” (SYNGENTA CROP PROTECTION AG, priority 2020, dated 2026).

What was measured:
Assay type in all cases: in vivo
[1] = tested on: Plutella xylostella (Diamond Back Moth); experiment: Activity against Plutella xylostella (diamond back moth), treated artificial diet; conditions: 192 h, application rate 200 ppm, eggs, 8 days after infestation, read-out: effect in at least one of the two categories (mortality or growth inhibition)
In short: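 Artificial diet treated with aqueous test solutions made from 10,000 ppm DMSO stocks, dried, then infested with Plutella eggs. Mortality and growth inhibition scored against untreated samples 8 days after infestation.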

[2] = tested on: Spodoptera littoralis (Egyptian Cotton Leaf Worm); experiment: Activity against Spodoptera littoralis (Egyptian cotton leaf worm), sprayed cotton leaf discs; conditions: foliar, 72 h, application rate 200 ppm, L1 larvae, 3 days after infestation
In short: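 Leaf discs on agar were sprayed with aqueous solutions prepared from 10,000 ppm DMSO stock, dried, then infested with five L1 larvae. Mortality, anti-feeding and growth inhibition were scored against untreated discs 3 days after infestation. Control was recorded when any one category exceeded the untreated sample.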

[3] = tested on: Chilo suppressalis (Striped Rice Stemborer); experiment: Activity against Chilo suppressalis (striped rice stemborer), treated artificial diet; conditions: 144 h, application rate 200 ppm, L2 larvae, 6 days after infestation
In short: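 Artificial diet treated with aqueous test solutions made from 10,000 ppm DMSO stocks, dried, then infested with L2 larvae, 6-8 per well. Mortality, anti-feeding effect and growth inhibition scored versus untreated samples 6 days after infestation; control counted when any one category exceeds the untreated sample.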

[4] = tested on: Diabrotica balteata (Corn Root Worm); experiment: Activity against Diabrotica balteata (corn root worm), sprayed maize sprouts on agar; conditions: 96 h, application rate 200 ppm, L2 larvae, 4 days after infestation, read-out: effect in at least one of the two categories (mortality or growth inhibition)
Protocol: Example B2: Activity Against Diabrotica balteata (Corn Root Worm)
Maize sprouts placed onto an agar layer in 24-well microtiter plates were treated with aqueous test solutions prepared from 10,000 ppm DMSO stock solutions by spraying. After drying, the plates were infested with L2 larvae (6 to 10 per well). The samples were assessed for mortality and growth inhibition in comparison to untreated samples 4 days after infestation.

[5] = tested on: Euschistus heros (Neotropical Brown Stink Bug); experiment: Activity against Euschistus heros (neotropical brown stink bug), sprayed soybean leaves; conditions: 120 h, application rate 200 ppm, N2 nymphs, 5 days after infestation, read-out: effect in at least one of the two categories (mortality or growth inhibition)
Protocol: Example B3: Activity Against Euschistus heros (Neotropical Brown Stink Bug)
Soybean leaves on agar in 24-well microtiter plates were sprayed with aqueous test solutions prepared from 10,000 ppm DMSO stock solutions. After drying the leaves were infested with N2 nymphs. The samples were assessed for mortality and growth inhibition in comparison to untreated samples 5 days after infestation.

[6] = tested on: Tetranychus urticae (Two-Spotted Spider Mite); experiment: Activity against Tetranychus urticae (two-spotted spider mite), sprayed bean leaf discs; conditions: foliar, 192 h, application rate 200 ppm, mixed population (mobile stages), 8 days after infestation
Protocol: Example B9: Activity Against Tetranychus urticae (Two-Spotted Spider Mite)
Bean leaf discs on agar in 24-well microtiter plates were sprayed with aqueous test solutions prepared from 10,000 ppm DMSO stock solutions. After drying the leaf discs were infested with a mite population of mixed ages. The samples were assessed for mortality on mixed population (mobile stages) 8 days after infestation.

[7] = tested on: Diabrotica balteata (Corn Root Worm); experiment: Activity against Diabrotica balteata (corn root worm), corn seedlings on filter paper in cups; conditions: 120 h, application rate 3 ppm, L2 larva, 5 days after treatment, read-out: effect in at least one of the two categories (mortality or growth inhibition)
Protocol: Example B12: Activity Against Diabrotica Balteata (Corn Root Worm)
Three corn seedlings were placed on wetted filter paper in plastic cups, and 3 ml of diluted test solutions were pipetted onto them. The cups were infested with 10 L2 larva and checked for mortality and growth regulation 5 days after treatment.

[8] = tested on: Myzus persicae (Green Peach Aphid); experiment: Activity against Myzus persicae (green peach aphid), feeding/contact activity; conditions: 144 h, application rate 200 ppm, mixed ages, 6 days after infestation
Protocol: Example B6: Activity Against Myzus persicae (Green Peach Aphid) Feeding/Contact Activity
Sunflower leaf discs were placed onto agar in a 24-well microtiter plate and sprayed with aqueous test solutions prepared from 10,000 ppm DMSO stock solutions. After drying, the leaf discs were infested with an aphid population of mixed ages. The samples were assessed for mortality 6 days after infestation.

[9] = tested on: Carpocapsa (Cydia) Pomonella (Codling Moth); experiment: Activity against Carpocapsa (Cydia) pomonella (codling moth), sprayed diet cubes; conditions: 336 h, application rate 12.5 ppm, L1 larvae, 14 days after infestation, read-out: effect in at least one of the two categories (mortality or growth inhibition)
In short: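 Paraffin-coated diet cubes were sprayed with test solutions at 12.5 ppm, dried, and infested with one L1 larva each (10 replicates). After incubation at 26–27 °C, mortality and growth inhibition were scored 14 days after infestation.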

[10] = tested on: Frankliniella occidentalis (Western Flower Thrips); experiment: Activity against Frankliniella occidentalis (western flower thrips), sprayed sunflower leaf discs; conditions: foliar, 168 h, application rate 200 ppm, population of mixed ages, 7 days after infestation
Protocol: Example B4: Activity Against Frankliniella occidentalis (Western Flower Thrips)
Sunflower leaf discs were placed on agar in 24-well microtiter plates and sprayed with aqueous test solutions prepared from 10,000 ppm DMSO stock solutions. After drying the leaf discs were infested with a Frankliniella population of mixed ages. The samples were assessed for mortality 7 days after infestation.

[11] = tested on: Bemisia tabaci (Cotton White Fly); experiment: Activity against Bemisia tabaci (cotton white fly), sprayed cotton leaf discs; conditions: foliar, 144 h, application rate 200 ppm, adult white flies, 6 days after incubation
Protocol: Example B1: Activity Against Bemisia tabaci (Cotton White Fly)
Cotton leaf discs were placed on agar in 24-well microtiter plates and sprayed with aqueous test solutions prepared from 10,000 ppm DMSO stock solutions. After drying the leaf discs were infested with adult white flies. The samples were checked for mortality 6 days after incubation.

CCS(=O)(=O)c1c(N2Cc3ncc(C(F)(F)F)cc3C2=O)nc2ccc(OC(F)F)cn12 [Compound P10, 6-[6-(difluoromethoxy)-3-ethylsulfonyl-imidazo[1,2-a]pyridin-2-yl]-3-(trifluoromethyl)-7H-pyrrolo[3,4-b]pyridin-5-one]
≥ 80%: percent effect (mortality or growth inhibition) at 200 ppm [1] | percent control (mortality, anti-feedant effect or growth inhibition) at 200 ppm [2] | percent control (mortality, anti-feedant effect or growth inhibition) at 200 ppm [3] | percent effect (mortality or growth inhibition) at 200 ppm [4] | percent effect (mortality or growth inhibition) at 200 ppm [5] | mortality at 200 ppm [6] | percent effect (mortality or growth inhibition) at 3 ppm [7] | mortality at 200 ppm [8] | percent effect (mortality or growth inhibition) at 12.5 ppm [9] | mortality at 200 ppm [10] | mortality at 200 ppm [11]

CCS(=O)(=O)c1c(N2Cc3ccc(S(=O)(=O)C(F)(F)F)cc3C2=O)nc2cc(C(F)(F)F)ccn12 [Compound P37, 2-[3-ethylsulfonyl-7-(trifluoromethyl)imidazo[1,2-a]pyridin-2-yl]-6-(trifluoromethyl-sulfonyl) isoindolin-1-one]
≥ 80%: percent control (mortality, anti-feedant effect or growth inhibition) at 200 ppm [2] | percent control (mortality, anti-feedant effect or growth inhibition) at 200 ppm [3] | percent effect (mortality or growth inhibition) at 200 ppm [4] | percent effect (mortality or growth inhibition) at 200 ppm [5] | percent effect (mortality or growth inhibition) at 3 ppm [7] | mortality at 200 ppm [8] | mortality at 200 ppm [10] | mortality at 200 ppm [11]

CCS(=O)(=O)c1c(N2Cc3ccc(OC(F)(F)F)cc3C2=O)nc2ccc(C(C)(F)F)cn12 [Compound P17, 2-[6-(1,1-difluoroethyl)-3-ethylsulfonyl-imidazo[1,2-a]pyridin-2-yl]-6-(trifluoromethoxy) isoindolin-1-one]
≥ 80%: percent effect (mortality or growth inhibition) at 200 ppm [1] | percent control (mortality, anti-feedant effect or growth inhibition) at 200 ppm [2] | percent control (mortality, anti-feedant effect or growth inhibition) at 200 ppm [3] | percent effect (mortality or growth inhibition) at 200 ppm [4] | percent effect (mortality or growth inhibition) at 200 ppm [5] | mortality at 200 ppm [6] | percent effect (mortality or growth inhibition) at 3 ppm [7] | mortality at 200 ppm [8] | percent effect (mortality or growth inhibition) at 12.5 ppm [9] | mortality at 200 ppm [10] | mortality at 200 ppm [11]

CCS(=O)(=O)c1c(N2Cc3ccc(C(F)(F)F)cc3C2=O)nc2ccc(C3(C#N)CC3)cn12 [Compound P16, 1-[3-ethylsulfonyl-2-[1-oxo-6-(trifluoromethyl)isoindolin-2-yl]imidazo[1,2-a]pyridin-6-yl] cyclopropane-carbonitrile]
≥ 80%: percent effect (mortality or growth inhibition) at 200 ppm [1] | percent control (mortality, anti-feedant effect or growth inhibition) at 200 ppm [2] | percent effect (mortality or growth inhibition) at 200 ppm [4] | percent effect (mortality or growth inhibition) at 200 ppm [5] | mortality at 200 ppm [6] | percent effect (mortality or growth inhibition) at 3 ppm [7] | mortality at 200 ppm [8] | percent effect (mortality or growth inhibition) at 12.5 ppm [9] | mortality at 200 ppm [11]

CCS(=O)(=O)c1c(N2Cc3ccc(OC(F)(F)F)cc3C2=O)nc2ccc(C3(C#N)CC3)cn12 [Compound P14, 1-[3-ethylsulfonyl-2-[1-oxo-6-(trifluoromethoxy)isoindolin-2-yl]imidazo[1,2-a]pyridin-6-yl] cyclopropane-carbonitrile]
≥ 80%: percent effect (mortality or growth inhibition) at 200 ppm [1] | percent control (mortality, anti-feedant effect or growth inhibition) at 200 ppm [2] | percent effect (mortality or growth inhibition) at 200 ppm [4] | percent effect (mortality or growth inhibition) at 200 ppm [5] | mortality at 200 ppm [6] | percent effect (mortality or growth inhibition) at 3 ppm [7] | mortality at 200 ppm [8] | percent effect (mortality or growth inhibition) at 12.5 ppm [9] | mortality at 200 ppm [10] | mortality at 200 ppm [11]

CCS(=O)(=O)c1c(N2Cc3ncc(C(F)(F)F)cc3C2=O)nc2ccc(C3(C#N)CC3)cn12 [Compound P15, 1-[3-ethylsulfonyl-2-[5-oxo-3-(trifluoromethyl)-7H-pyrrolo[3,4-b]pyridin-6-yl]imidazo [1,2-a]pyridin-6-yl] cyclopropane-carbonitrile]
≥ 80%: percent effect (mortality or growth inhibition) at 200 ppm [1] | percent control (mortality, anti-feedant effect or growth inhibition) at 200 ppm [2] | percent effect (mortality or growth inhibition) at 200 ppm [4] | percent effect (mortality or growth inhibition) at 200 ppm [5] | mortality at 200 ppm [6] | percent effect (mortality or growth inhibition) at 3 ppm [7] | mortality at 200 ppm [8] | percent effect (mortality or growth inhibition) at 12.5 ppm [9] | mortality at 200 ppm [10] | mortality at 200 ppm [11]

CCS(=O)(=O)c1c(N2Cc3ncc(C(F)(F)F)cc3C2=O)nc2cc(C3(C#N)CC3)ccn12 [Compound P3, 1-[3-ethylsulfonyl-2-[5-oxo-3-(trifluoromethyl)-7H-pyrrolo[3,4-b]pyridin-6-yl]imidazo [1,2-a]pyridin-7-yl] cyclopropane-carbonitrile]
≥ 80%: percent effect (mortality or growth inhibition) at 200 ppm [1] | percent control (mortality, anti-feedant effect or growth inhibition) at 200 ppm [2] | percent effect (mortality or growth inhibition) at 200 ppm [4] | percent effect (mortality or growth inhibition) at 200 ppm [5] | percent effect (mortality or growth inhibition) at 3 ppm [7] | mortality at 200 ppm [8] | percent effect (mortality or growth inhibition) at 12.5 ppm [9] | mortality at 200 ppm [10] | mortality at 200 ppm [11]

CCS(=O)(=O)c1c(N2Cc3ccc(S(=O)(=O)C(F)(F)F)cc3C2=O)nc2cc(OCC(F)(F)F)ccn12 [Compound P33, 2-[3-ethylsulfonyl-7-(2,2,2-trifluoroethoxy)imidazo[1,2-a]pyridin-2-yl]-6-(trifluoromethylsulfonyl)isoindolin-1-one]
≥ 80%: percent effect (mortality or growth inhibition) at 200 ppm [1] | percent control (mortality, anti-feedant effect or growth inhibition) at 200 ppm [2] | percent control (mortality, anti-feedant effect or growth inhibition) at 200 ppm [3] | percent effect (mortality or growth inhibition) at 200 ppm [4] | percent effect (mortality or growth inhibition) at 200 ppm [5] | percent effect (mortality or growth inhibition) at 3 ppm [7] | mortality at 200 ppm [8] | percent effect (mortality or growth inhibition) at 12.5 ppm [9] | mortality at 200 ppm [10] | mortality at 200 ppm [11]
